What was measured:
CD20 [1] = assay: Laser-scanning confocal microscopy of CD20 internalization; format: cell-based, human; settings: lenalidomide 48 h at 37° C.
Description: Binding and internalization of anti-CD20 in CLL cells were examined by laser scanning confocal microscopy. CLL cells were incubated with lenalidomide for 48 hours at 37° C. and then collected and washed twice with PBS followed by fixation with 2% paraformaldehyde. Cells were then attached on a slide glass using Cytospin (Thermo Electron, Waltham, Mass.) and permeablilized with cold acetone for 5 minutes. Before cell membrane and nucleus staining, cells were preincubated with 1% bovine serum albumin in PBS for 1 hour at room temperature to reduce nonspecific binding. Cells were incubated with 50 μg/mL concanavalin A (Invitrogen) for 5 minutes at room temperature to stain cell membrane and with 1 μg/mL DRAQ5TM (Biostatus, Leicestershire, United Kingdom) for 5 minutes at room temperature to stain nucleus. Finally, slides were rinsed twice with PBS and covered with glass for confocal microscopy observation. Green fluorescence of fluorescein isothiocyanate-CD20, red fluorescence of concanavalin A, and blue fluorescence of DRAQ5 were analyzed, and merged images were produced using Zeiss 510 META Laser Scanning Confocal Imaging Systems and LSM Image software (Carl Zeiss, Thornwood, N.Y.).

CD38 = assay: Immunophenotyping (flow cytometry) of CD38 on CLL cells; format: cell-based, human; settings: 0.5 μM, 48 h, vs vehicle, n=6, P<0.05
Description: (§1) Immunophenotyping was performed to determine the percentage and mean fluorescence intensity of CD20, CD19, CD5, CD23, CD38, CD3, and CD52 on CLL cells relative to a specific isotype control. Cells (10^6) were washed in PBS, stained with fluorochrome-labeled antibodies at 4° C., then rinsed in PBS and analyzed by flow cytometry (EPICS-XL; Beckman Coulter, Fullerton, Calif.). A total of 10,000 events were collected and analyzed using Windows Multiple Document Interface for Flow Cytometry (WinMDI). CD20, CD19, CD3, CD5, CD23, and CD38 antibodies were obtained from BD Biosciences (San Jose, Calif.), and CD52 antibody was obtained from Serotec (Raleigh, N.C.).

CD19 = assay: Immunophenotyping (flow cytometry) of CD19 on CLL cells; format: cell-based, human; settings: 0.5 μM, vs vehicle
Description: as §1

Raji cell line xenograft = settings: Raji xenograft mouse, lenalidomide alone; cited from earlier work
CLL cells = assay: Immunoliposome FAM-ODN uptake studies; format: cell-based, human
Description: An ethanol dilution method was modified to prepare the FAM-ODN-loaded immunoliposomes.^25 Briefly, protamine sulfate in citric acid (20 mM, pH 4) was mixed with lipids (DC-Chol/Egg-PC/PEG-DSPE [molar ratio]=28.0:70.0:2.0) at a mass ratio of lipids:protamine=12.5:0.3, followed by addition of ODN in citric acid (20 mM, pH 4) at ODN/lipids/protamine (weight ratio)=1:12.5:0.3. The complexes were then dialyzed against citric acid (20 mM, pH 4) for 1 hour and then further dialyzed against N-2-hydroxyethylpiperazine-N′-2-ethanesulfonic acid-buffered saline (145 mM NaCl, 20 mM N-2-hydroxyethylpiperazine-N′-2-ethanesulfonic acid, pH 7.4) overnight, using a DispoDialyzer (Spectrum Labs, Rancho Dominguez, Calif.) with a molecular weight cutoff of 10,000 Da. Liposome size distribution was analyzed by dynamic light scattering on a NICOMP Particle Sizer Model 370 (Particle Sizing Systems, Santa Barbara, Calif.).
A postinsertion method was adopted to incorporate antibody ligands into preformed liposomes containing FAM-ODN. In this method, rituximab, trastuzumab (anti-Her2), or alemtuzumab (anti-CD52) was incubated with 20× Traut reagent (2 hours at room temperature) to yield sulfhydryl-modified antibodies. The anti-CD20—sulfhydryl was then incubated with micelles of Mal-PEG-DSPE at a molar ratio of 1:10 and then incubated with FAM-ODN loaded liposomes for 1 hour at 37° C. Targeted liposomes with antibody-PEG-DSPE-to-lipid ratios of 1:1000 ([…]) were thus prepared.
CLL cells were incubated at 10^6 cells/mL for 1 hour at 37° C. with rituximab-, trastuzumab-, or alemtuzumab-coated immunoliposome-FAM-ODN (CODN=1.0 μM) and washed twice in PBS. Cells were kept in culture in RPMI 10% fetal bovine serum for an additional 1, 4, and 24 hours, respectively, in the presence of either 0.5 μM lenalidomide or vehicle control. […] Cells were visualized on a Nikon fluorescence microscope (magnification ×200).
The inventors herein used a FAM-ODN formulated into rituximab-coated immunoliposomes. […] Cells were visualized on a Nikon fluorescence microscope (magnification, ×200).

CD20 [2] = assay: Immunoblot of total CD20 protein; format: cell-based, human; settings: 48 and 72 hours, relative to vehicle control
Description: Immunoblot assays were performed with the multiple antigen detection immunoblotting method as described previously.^23 Whole-cell lysates were prepared and stored in −80° C. Protein concentration was quantified by the bicinchoninic acid method (Pierce Chemical, Rockford, Ill.). Protein samples (50 μg) were separated by sodium dodecyl sulfate-polyacrylamide gel electrophoresis (12%) and transferred to 0.2-μm nitrocellulose membranes (Whatman Schleicher & Schuell, Keene, N.H.) and incubated with goat antihuman CD20 (Santa Cruz Biotechnology, Santa Cruz, Calif.) or rabbit antiactin (Cell Signaling Technology, Danvers, Mass.) antibodies. Horseradish peroxidase-conjugated goat anti-rabbit IgG (Bio-Rad, Hercules, Calif.) was used as secondary antibody Immune complexes were detected using chemiluminescent substrate (SuperSignal; Pierce Chemical).

[3] = rituximab-coated immunoliposome-FAM-ODN, 0.5 μM lenalidomide

In the case of `Nc1cccc2c1CN(C1CCC(=O)NC1=O)C2=O` (stereo not drawn) [lenalidomide], the “CD20 internalization in CLL cells” value (CD20 [1]) is reported as “actively internalized”, the “CD38 activation marker level on CLL cells” value (CD38) is reported as “increased levels” and the “CD19 expression on CLL cells” value (CD19) is reported as “no changes”. The NK cell expansion (Raji cell line xenograft) was “induced NK cell expansion”, the tumor growth (Raji cell line xenograft) was “failed to inhibit tumor growth” and the “internalization of fluorochrome-labeled ODN from rituximab-coated immunoliposomes” value (CLL cells; 0.5 μM lenalidomide after 1 h immunoliposome-FAM-ODN (1.0 μM), N=3) was “enhanced internalization”. The “earliest time of enhanced ODN internalization” value (CLL cells; [3]) was 1 h, the “time of maximum effect on ODN internalization” value (CLL cells; [3]) was 24 h and the “total level of CD20 protein” value (CD20 [2]) was “no variation”.

From patent US20110280913A1, “Methods and Compositions for Delivering Therapeutic Agents in the Treatment of B-Cell Related Disorders” (THE OHIO STATE UNIVERSITY, priority 2008, published 2011)
